In patent US20090047246A1, “NOVEL INHIBITORS OF HEPATITIS C VIRUS REPLICATION” (InterMune, Inc., priority 2007, published 2009):

Columns and labels:
[1] = biological target: NS3 Helicase (Hepatitis C virus genotype 1b, UniProt P26663); experiment: Activity of NS3 Helicase in Presence of Detergent with or without LDAO (Table A); format: biochemical; settings: plus LDAO 0.6 mM; for Activity: control = 100
Experimental: In another embodiment, at least one detergent is added to a solution containing NS3 to improve the helicase activity. In some embodiments, the detergent is selected from the group consisting of LDAO, Tween 20, Triton X100, Pluronic F127, CHAPS, β-octyl glucoside, laurylmaltoside, N-lauroylsarcosine, and hexadecyltrimethylammonium bromide. In a preferred embodiment, LDAO is added. In a more preferred embodiment, at least one additional detergent in added to the solution containing NS3 and LDAO. In some embodiments, the additional detergent(s) is/are selected from the group consisting of Tween 20, Triton X100, Pluronic F127, CHAPS, β-octyl glucoside, laurylmaltoside, N-lauroylsarcosine, and hexadecyltrimethylammonium bromide. Table A represents the helicase activity of NS3 in the presence of LDAO and at least one additional detergent; and, in the absence of LDAO and the presence of at least one other detergent.

[2] = tested on: HCV NS3/4a protease; experiment: HCV NS3/4a protease activity, effect of additives on reaction rate (Assay Example 1); format: biochemical, HCV genotype 1b-K2040; settings: base buffer 50 mM Tris-HCl pH 7.5, 15% glycerol; for Conclusion (effect of additive on NS3/4a protease reaction rate): 0.5 μM FRET substrate, additive at the concentrations tested
Experimental: In order to identify reaction conditions that give high levels of HCV NS3/4a protease activity, several additives were analyzed to determine their effect on reaction rate. The base buffer used was 50 mM Tris-HCl, pH 7.5 containing 15% glycerol. The FRET-based assay substrate used (sequence: Ac-DE-Dap(QXL520)-EE-Abu-ψ-[COO]-AS-Cys(5-FAMsp)-NH2) was obtained from Anaspec, Inc. (San Jose, Calif.). The NS4a surrogate peptide used (KGSVVIVGRIILSGRK) was obtained from Midwest Biotech (Fishers, Ind.). The NS3 enzyme used was the benchmark wild-type full length enzyme derived from HCV genotype 1b-K2040. The reaction rate for the NS3 catalyzed hydrolysis of 0.5 μM substrate in base buffer was used as a reference.

[3] = tested on: T1, NS4a surrogate peptide
T1 sequence: KGSVVIVGRIILSGRK

NS3 Helicase, sequence (P26663 1027-1657): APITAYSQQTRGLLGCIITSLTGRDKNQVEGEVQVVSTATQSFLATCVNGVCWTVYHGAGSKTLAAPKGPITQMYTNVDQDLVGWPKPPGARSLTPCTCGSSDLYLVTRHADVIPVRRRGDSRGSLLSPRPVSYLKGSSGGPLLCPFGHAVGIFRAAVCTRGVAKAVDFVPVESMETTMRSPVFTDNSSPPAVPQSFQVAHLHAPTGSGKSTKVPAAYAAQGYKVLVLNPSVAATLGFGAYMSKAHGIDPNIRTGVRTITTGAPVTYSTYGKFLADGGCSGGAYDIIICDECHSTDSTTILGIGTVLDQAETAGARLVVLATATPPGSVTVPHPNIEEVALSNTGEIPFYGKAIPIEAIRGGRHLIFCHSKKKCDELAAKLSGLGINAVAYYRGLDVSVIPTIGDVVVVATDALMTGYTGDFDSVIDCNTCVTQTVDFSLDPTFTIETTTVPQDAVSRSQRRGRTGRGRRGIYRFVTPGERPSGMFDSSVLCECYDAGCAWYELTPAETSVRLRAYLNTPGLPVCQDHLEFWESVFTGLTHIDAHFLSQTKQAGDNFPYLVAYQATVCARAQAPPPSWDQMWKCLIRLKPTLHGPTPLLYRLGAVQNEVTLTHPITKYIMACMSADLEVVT

| Molecule | Conclusion (effect of additive on NS3/4a protease reaction rate) [2] | further results |
| --- | --- | --- |
| C[C@H](CCC(=O)NCCC[N+](C)(C)CCCS(=O)(=O)[O-])[C@H]1CC[C@H]2[C@@H]3[C@H](O)C[C@@H]4C[C@H](O)CC[C@]4(C)[C@H]3C[C@H](O)[C@]12C [CHAPS] | CHAPS at 2 mM increased activity | Slope ([1]; detergent 0.020%): −0.77 mP/min; Activity ([1]; detergent 0.020%): 126%; Slope ([1]; detergent 0.075%): −1.16 mP/min; Activity ([1]; detergent 0.075%): 190% |
| O[C@@H](CS)[C@@H](O)CS [DTT] | 10 and 30 mM DTT improve activity. |  |
| CCCCCCCCCCCC[N+](C)(C)[O-] [LDAO, lauryl (dimethyl)-amine oxide] | LDAO at 0.6 mM raised activity | Increase of NS3/4a protease activity ([2]; LDAO at 0.6 mM): significantly (~10-fold) |
| [Cl-].[Na+] [NaCl] | NaCl detrimental to activity |  |
| O=C(O)CCP(CCC(=O)O)CCC(=O)O [TCEP] | detrimental to activity |  |
| KGSVVIVGRIILSGRK [NS4a peptide, "The NS4a surrogate peptide used (…) was obtained from Midwest Biotech", reference compound] | Best activity at 25 and 2500 μM |  |
| NS3 enzyme, benchmark wild-type full length enzyme derived from HCV genotype 1b-K2040 |  | NS3/4a protease activity (reaction rate of NS3 catalyzed hydrolysis of 0.5 µM FRET substrate) [3]: Best activity at 25 and 2500 µM |
| Triton X-100 | Improvement in activity at 12 μM |  |
